Reference: paper PMC6273125, “Antioxidant Activity of 3-[N-(Acylhydrazono)ethyl]-4-hydroxy-coumarins” (Molecules, 2016)
“Also recorded” adds a separate entry of the source.

How the values were obtained:
[1] = Reducing activity of the DPPH stable free radical (RA%); conditions: DPPH 0.05 mM in ethanol; for RA%, 50 μM, 20 min / RA%, 50 μM, 60 min: compound 50 μM; for RA%, 100 µM, 20 min: compound 100 µM; for RA%, 100 μM, 60 min: compound 100 μM
Description: It is well known that the interaction of the synthesized 3-acetyl-4-hydroxycoumarin N-acylhydrazones 2 with the stable free radical DPPH indicates their radical scavenging ability in an iron-free system. […] Considering the antioxidant activity of 3-acetyl-4-hydroxy coumarin (1) it seems to be higher than the hydrazone derivatives 2a–l in both concentrations and in relation with the time and it is correlated with the presence of 3-acetyl and 4-hydroxy groups in the lactone ring and the possibility of tautomers (A–D) formation as shown in Scheme 2. It has been reported that 3-acetyl-4-hydroxycoumarin mainly exists in endocyclic enol form (B) in polar solvents (methanol, ethanol) and it is well known that enols show antioxidant activity e.g., it has been reported that enolic and phenolic hydroxyl groups is beneficial for curcumin to protect erythrocytes against hemin-induced hemolysis and to protect DNA against AAPH-induced oxidation. The lower results of hydrazones 2a–l, are correlated with their stereochemistry which influence their interaction with DPPH.
To an ethanolic solution of DPPH (0.05 mM) in absolute ethanol the new coumarin derivatives dissolved in DMSO were added (final concentration 50 and 100 µM). The mixture was shaken vigorously and allowed to stand for 20 min or 60 min; absorbance at 517 nm was determined spectrophotometrically against the blank and the percentage of reducing activity (RA) was calculated by the formula: RA% = [(A0 − A1)/A0] × 100 where A0 is the absorbance of blank and A1 is the absorbance of the reaction mixture.

[2] = target: T1, soybean lipoxygenase (LOX) (Glycine max, UniProt P08170); assay: In vitro inhibition of soybean lipoxygenase, UV-absorbance-based enzyme assay; assay type: biochemical; conditions: for IC50 / LOX IC50: soybean lipoxygenase, sodium linoleate, Tris buffer pH 9
T1 construct: purchased Sigma Chemical, Co. (St. Louis, MO, USA)
T1 sequence (P08170 1-839): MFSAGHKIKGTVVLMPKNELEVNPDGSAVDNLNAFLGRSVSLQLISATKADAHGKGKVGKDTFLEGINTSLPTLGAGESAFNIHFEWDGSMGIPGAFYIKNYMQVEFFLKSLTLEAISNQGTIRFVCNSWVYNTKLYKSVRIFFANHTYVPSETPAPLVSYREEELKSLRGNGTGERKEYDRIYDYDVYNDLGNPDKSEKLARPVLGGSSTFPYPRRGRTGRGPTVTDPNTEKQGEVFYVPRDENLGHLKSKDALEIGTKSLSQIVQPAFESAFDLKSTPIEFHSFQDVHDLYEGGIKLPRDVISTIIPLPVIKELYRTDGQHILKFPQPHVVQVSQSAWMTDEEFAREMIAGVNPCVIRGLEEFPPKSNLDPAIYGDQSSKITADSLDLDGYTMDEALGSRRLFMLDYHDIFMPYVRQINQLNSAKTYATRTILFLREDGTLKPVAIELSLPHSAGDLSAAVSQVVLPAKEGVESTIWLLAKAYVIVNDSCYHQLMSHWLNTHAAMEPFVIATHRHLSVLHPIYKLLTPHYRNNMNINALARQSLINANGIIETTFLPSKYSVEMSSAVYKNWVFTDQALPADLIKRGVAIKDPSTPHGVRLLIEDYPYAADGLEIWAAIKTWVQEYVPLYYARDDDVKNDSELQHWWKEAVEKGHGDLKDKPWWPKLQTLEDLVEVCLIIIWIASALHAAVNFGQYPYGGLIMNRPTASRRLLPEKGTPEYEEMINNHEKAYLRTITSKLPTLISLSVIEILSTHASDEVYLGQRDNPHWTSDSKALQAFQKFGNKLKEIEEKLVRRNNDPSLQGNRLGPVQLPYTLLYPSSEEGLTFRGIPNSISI
Method: The tested compounds dissolved in DMSO were incubated at room temperature with sodium linoleate (100 µL) and 200 µL of enzyme solution (1/9 × 10^−4 w/v in saline) in Tris buffer pH 9. The conversion of sodium linoleate to 13-hydroperoxylinoleic acid at 234 nm was recorded and compared with the appropriate standard inhibitor.

[3] = Inhibition of linoleic acid lipid peroxidation induced by AAPH; conditions: pH 7.4, 37 °C
Description: AAPH induced linoleic acid oxidation is based on the inhibition of lipid oxidation and provides a measure of how efficiently antioxidants protect against lipid oxidation in vitro. Oxidation of exogenous linoleic acid by a thermal free radical producer (AAPH) is followed by UV spectrophotometry in a highly-diluted sample [36, 42].
Production of conjugated diene hydroperoxide by oxidation of linoleic acid in an aqueous dispersion is monitored at 234 nm. 2,2′-Azobis(2-amidinopropane) dihydrochloride (AAPH) is used as a free radical initiator. Ten microliters of the 16 mM linoleic acid sodium salt solution was added to the UV cuvette containing 930 µL of […] phosphate buffer, pH 7.4 prethermostated at 37 °C. The oxidation reaction was initiated at 37 °C under air by the addition of 50 μL of 40 mM AAPH solution. Oxidation was carried out in the presence of aliquots (10 μL) of the tested coumarins. In the assay without antioxidant, lipid peroxidation was measured in the presence of the same level of DMSO. The rate of oxidation at 37 °C was monitored by recording the increase in absorption at 234 nm caused by conjugated diene hydroperoxides.

CC(=O)c1c(O)c2ccccc2oc1=O [compound 1, 3-Acetyl-4-hydroxycoumarin]
RA%, 50 μM, 20 min [1]: 29 ± 0.5% | RA%, 50 μM, 60 min [1]: 31± 0.3% | RA%, 100 µM, 20 min [1]: 36± 1.3% | RA%, 100 μM, 60 min [1]: 36 ± 0.8% | inhibition at 100 µM [2]: 44% | LOX % inhibition ([2]; 100 µM, IC50 not determined): low inhibitory activity

CC(=NNC(=O)c1ccc(O)cc1)c1c(O)c2ccccc2oc1=O [2f, 3-{N-[(4′-Hydroxybenzoyl)hydrazono]ethyl}-4-hydroxycoumarin]
RA%, 50 μM, 20 min [1]: 10 ± 0.5% | RA%, 50 μM, 60 min [1]: 14 ± 1.2% | RA%, 100 µM, 20 min [1]: 24 ± 2.2% | RA%, 100 μM, 60 min [1]: 26 ± 1.2% | LP 60 s, 100 μM (% inhibition of LP induced by AAPH) [3]: 98 ± 2.9% | melting point: 287 to 288 °C | IC50 [2]: 70 ± 4.3 µM

CC(=NNC(=O)c1ccccc1O)c1c(O)c2ccccc2oc1=O [2i, 3-{N-[(2′-Hydroxybenzoyl)hydrazono]ethyl}-4-hydroxycoumarin]
RA%, 50 μM, 20 min [1]: 8 ± 0.5% | RA%, 50 μM, 60 min [1]: 10 ± 0.1% | RA%, 100 µM, 20 min [1]: 27 ± 0.2% | RA%, 100 μM, 60 min [1]: 29 ± 1.7% | LP 60 s, 100 μM (% inhibition of LP induced by AAPH) [3]: 100 ± 8.2% | melting point: 271 to 272 °C | IC50 [2]: 49.5 ± 1.2 µM

CC(=NNC(=O)c1ccco1)c1c(O)c2ccccc2oc1=O [2j, 3-{N-[(2′-Furoyl)hydrazono]ethyl}-4-hydroxycoumarin]
RA%, 50 μM, 20 min [1]: 4 ± 0.2% | RA%, 50 μM, 60 min [1]: 8 ± 0.3% | RA%, 100 µM, 20 min [1]: 25 ± 1.8% | RA%, 100 μM, 60 min [1]: 27 ± 0.8% | LP 60 s, 100 μM (% inhibition of LP induced by AAPH) [3]: 95 ± 4.1% | melting point: 254.5 to 255 °C | IC50 [2]: 90 ± 5.1 µM

CC(=NNC(=O)c1ccc(N)cc1)c1c(O)c2ccccc2oc1=O [2g, 3-{N-[(4′-Aminobenzoyl)hydrazono]ethyl}-4-hydroxycoumarin]
RA%, 50 μM, 20 min [1]: 9 ± 0.3% | RA%, 50 μM, 60 min [1]: 16 ± 0.6% | RA%, 100 µM, 20 min [1]: 27 ± 0.8% | RA%, 100 μM, 60 min [1]: 31 ± 1.4% | LP 60 s, 100 μM (% inhibition of LP induced by AAPH) [3]: 95 ± 7.2% | melting point: 256 to 257 °C | IC50 [2]: 46.5 ± 2.3 µM

CC(=NNC(=O)c1ccc(C)cc1)c1c(O)c2ccccc2oc1=O [2d, 3-{N-[(4′-Methylbenzoyl)hydrazono]ethyl}-4-hydroxycoumarin]
RA%, 50 μM, 20 min [1]: 7 ± 0.3% | RA%, 50 μM, 60 min [1]: 10 ± 0.2% | RA%, 100 µM, 20 min [1]: 27 ± 2.2% | RA%, 100 μM, 60 min [1]: 27 ± 1.4% | LP 60 s, 100 μM (% inhibition of LP induced by AAPH) [3]: 100 ± 3.2% | melting point: 251 to 252 °C | LOX IC50 [2]: do not seem to present any activity; also recorded: No ^c

CC(=O)NN=C(C)c1c(O)c2ccccc2oc1=O [2a, 3-[N-(Acetylhydrazono)ethyl]-4-hydroxycoumarin]
RA%, 50 μM, 20 min [1]: 5 ± 0.2% | RA%, 50 μM, 60 min [1]: 7 ± 0.3% | RA%, 100 µM, 20 min [1]: 23 ± 3.0% | RA%, 100 μM, 60 min [1]: 24 ± 2.0% | LP 60 s, 100 μM (% inhibition of LP induced by AAPH) [3]: 100 ± 9.8% | melting point: 248 to 249 °C | IC50 [2]: 62.5 ± 2.3 µM

CC(Cc1ccc(O)c(O)c1)C(C)Cc1ccc(O)c(O)c1 (stereo not drawn) [NDGA, nordihydroguairetic acid, reference compound]
RA%, 50 μM, 20 min [1]: 84 ± 2.0% | RA%, 50 μM, 60 min [1]: 83 ± 3.3% | RA%, 100 µM, 20 min [1]: 81 ± 5.2% | RA%, 100 μM, 60 min [1]: 83 ± 4.7%

CC(=NNC(=O)c1cccs1)c1c(O)c2ccccc2oc1=O [2k, 3-{N-[(2′-Thienylcarbonyl)hydrazono]ethyl}-4-hydroxycoumarin]
RA%, 50 μM, 20 min [1]: 7 ± 0.1% | RA%, 50 μM, 60 min [1]: 9 ± 0.2% | RA%, 100 µM, 20 min [1]: 25 ± 2.1% | RA%, 100 μM, 60 min [1]: 30 ± 2.2% | LP 60 s, 100 μM (% inhibition of LP induced by AAPH) [3]: 98 ± 3.9% | melting point: 228 to 228.5 °C | IC50 [2]: 43.5 ± 3.2 µM

CC(=NNC(=O)Cc1ccccc1)c1c(O)c2ccccc2oc1=O [2b, 3-[N-(Phenylacetylhydrazono)ethyl]-4-hydroxycoumarin]
RA%, 50 μM, 20 min [1]: 4 ± 0.2% | RA%, 50 μM, 60 min [1]: 7 ± 0.1% | RA%, 100 µM, 20 min [1]: 25 ± 2.0% | RA%, 100 μM, 60 min [1]: 29 ± 1.1% | LP 60 s, 100 μM (% inhibition of LP induced by AAPH) [3]: 100 ± 5.5% | melting point: 216 to 217 °C | IC50 [2]: 40 ± 0.5 µM

CC(=NNC(=O)c1ccc(Cl)cc1)c1c(O)c2ccccc2oc1=O [2e, 3-{N-[(4′-Chlorobenzoyl)hydrazono]ethyl}-4-hydroxycoumarin]
RA%, 50 μM, 20 min [1]: 7 ± 0.2% | RA%, 50 μM, 60 min [1]: 10 ± 0.5% | RA%, 100 µM, 20 min [1]: 27 ± 0.9% | RA%, 100 μM, 60 min [1]: 29 ± 0.8% | LP 60 s, 100 μM (% inhibition of LP induced by AAPH) [3]: 94 ± 4.8% | melting point: 248 to 248.5 °C | IC50 [2]: 55 ± 2.1 µM

Cc1c(C)c2c(c(C)c1O)CCC(C)(C(=O)O)O2 (stereo not drawn) [TROLOX, trolox, reference compound]
LP 60 s, 100 μM (% inhibition of LP induced by AAPH) [3]: 63 ± 0.2%

CC(=NNC(=O)c1ccccc1)c1c(O)c2ccccc2oc1=O [2c, 3-[N-(Benzoylhydrazono)ethyl]-4-hydroxycoumarin]
RA%, 50 μM, 20 min [1]: 5 ± 0.1% | RA%, 50 μM, 60 min [1]: 7 ± 0.4% | RA%, 100 µM, 20 min [1]: 25 ± 1.2% | RA%, 100 μM, 60 min [1]: 30 ± 2.8% | LP 60 s, 100 μM (% inhibition of LP induced by AAPH) [3]: 98 ± 5.4% | IC50 [2]: 58 ± 2.7 µM

CC(=NNC(=O)c1ccncc1)c1c(O)c2ccccc2oc1=O [2h, 3-[N-(Isonicotinoylhydrazono)ethyl]-4-hydroxycoumarin]
RA%, 50 μM, 20 min [1]: 5 ± 0.1% | RA%, 50 μM, 60 min [1]: 8 ± 0.2% | RA%, 100 µM, 20 min [1]: 27 ± 1.5% | RA%, 100 μM, 60 min [1]: 31 ± 1.6% | LP 60 s, 100 μM (% inhibition of LP induced by AAPH) [3]: 99 ± 3.7% | melting point: 274 °C | LOX IC50 [2]: do not seem to present any activity; also recorded: No ^c
